Our source for the TGI and GI50 values is PubChem BioAssay (NCI).

Several values for one entry are separate records, joined by “and”; a condition that tells them apart may be missing. Equal entries are not always repeated.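 Assay format: 96-well plates, 48-hour exposure. At the GI50, growth is halved. TGI denotes the concentration required for complete inhibition of growth.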

Holding throughout (test): NCI anticancer screen, dose series, 48 h
The test system of assay [1] is MOLT-4 leukemia.
Assay [2] has as its system NCI-H522 lung.
Assay [3] has as its system MDA-MB-231 breast.
In assay [4] the test system is MDA-N.
The subject of assay [5] is SW-620 colon.
Assay [6] relates to SK-OV-3 ovarian.
In assay [7] the test system is HCT-15 colon.
Assay [8] relates to LOX IMVI melanoma.
Assay [9] relates to SK-MEL-5 melanoma.
For assay [10], the system named is OVCAR-8 ovarian.
The subject of assay [11] is SNB-19 CNS.
Assay [12] concerns SF-295 CNS.
The subject of assay [13] is NCI/ADR-RES ovarian.
Assay [14] relates to UACC-62 melanoma.
Assay [15] has as its system HS 578T breast.

As for `Cn1c(N/N=C/c2ccccc2)nc(-c2ccc3c(c2)OCO3)c(C#N)c1=O`, the TGI in assay [1], in assay [2], in assay [3], in [4], in assay [5] and in assay [6] was over 100 µM in each case. Further, the TGI in [7] was over 100 µM; in assay [8], over 100 µM; in assay [9], over 100 µM; in [10] it was 90.6 µM; in assay [11] it was over 100 µM; in assay [12], over 100 µM. The TGI in [13], in assay [14] and in assay [15] was over 100 µM each time.
On to `NC(Cc1ccc(O)cn1)C(=O)NC(C(=O)O)c1ccccc1` (stereo unspecified), for which the TGI in assay [1], in assay [2], in assay [3], in assay [4], in [5] and in [7] was over 100 µM throughout. The TGI in [8], in assay [9], in [10], in assay [11], in [12] and in assay [13] was over 100 µM each time. The same molecule yielded a TGI in assay [15] of over 100 µM.
Consider `Cc1ccc(C2(O)c3ccccc3C(=O)N(C)C2(O)c2ccc(C)cc2)cc1` (stereo unspecified), for which the TGI is 35.1 µM in assay [1]; over 100 µM in assay [2]; over 100 µM in assay [3]; over 100 µM in assay [4]; over 100 µM in assay [5]; over 100 µM in [6]. The TGI was over 100 µM in assay [7]; over 100 µM in assay [8]; over 100 µM in assay [9]; 90.9 µM in assay [10]; 64.1 µM in [11]; over 100 µM in assay [12]. Further, the TGI in [13] was over 100 µM; in [14], over 100 µM; in assay [15] it was 46.9 µM.
Regarding `CCN(CC)CCNc1c2ccccc2nc2cccc([N+](=O)[O-])c12`, the TGI in [1] is 0.124 µM; in [2] it was 0.0132 µM; in assay [3], 0.00487 µM; in assay [4] it was 0.00373 µM; in [5], 0.0395 µM and 0.172 µM; in assay [6], 0.0637 µM. Also, the TGI was 0.0205 µM and 0.0398 µM in assay [7]; 0.0173 µM and 0.0258 µM in assay [9]; 0.0382 µM in [10]; 0.0342 µM and 0.0643 µM in assay [12]; 0.034 µM in [13]; 0.0208 µM in [14]. The molecule also gave a TGI in assay [15] of 0.039 µM. Moreover, the GI50 in assay [8] was 0.0363 µM; in assay [9], 0.0112 µM; in [11], 0.0166 µM; in assay [12], 0.015 µM.
Turning to `COc1c(C)c(C/C=C(\C)CC/C=C(\C)CC/C=C(\C)CCC=C(C)C)c(OC)c(OC)c1OC`, the TGI in assay [1], in [2], in [3], in assay [4], in [5] and in assay [6] was over 100 µM in each case. Besides, the TGI in assay [7], in assay [8], in assay [9], in assay [10], in assay [11] and in assay [12] was over 100 µM each time. The TGI in assay [13], in assay [14] and in assay [15] was over 100 µM throughout.
Consider `CC12NC(=C(C#N)C#N)C(C#N)=C3NC(N)=C(C#N)C(=C31)Oc1ccccc12` (stereo unspecified), for which the TGI in [1] is over 31.6 µM; in assay [2], over 100 µM; in assay [3] it was over 100 µM; in assay [4] it was over 31.6 µM; in assay [5], over 100 µM; in assay [6], over 100 µM. Moreover, the TGI is over 100 µM in [7]; over 100 µM in [8]; over 22.9 µM in assay [9]; over 100 µM in [10]; over 100 µM in assay [11]; over 100 µM in [12]. The TGI in assay [13], in assay [14] and in [15] was over 100 µM throughout.
For `Cc1ccc(Nc2c3c(c(C#N)c4nc5ccccc5n24)CCCC3)cc1`, the TGI was 40.6 µM in [1]; 82.4 µM in [2]; 62.4 µM in [3]; over 100 µM in assay [4]; 61 µM in assay [5]; over 100 µM in assay [6]. The TGI in assay [7] was 82.4 µM; in [8], over 100 µM; in assay [9] it was 23.4 µM; in [10], over 100 µM; in assay [11] it was over 100 µM; in assay [12], 44.1 µM. Moreover, the TGI was 61.9 µM in [13], 71.2 µM in [14] and over 100 µM in assay [15].
In the case of `COc1ccccc1N1CCN(CCCCNC(=O)c2ccc([N+](=O)[O-])o2)CC1`, the TGI in assay [1] is over 62.5 µM; in assay [2], 7.26 µM; in assay [3], 77.1 µM; in [4], 13.6 µM; in assay [5], over 66 µM; in [6], 56.7 µM. Besides, the TGI in [7] was 17.5 µM; in assay [8], 16.3 µM; in [9], 18.7 µM; in assay [10] it was 45.6 µM; in assay [11] it was 25.5 µM; in assay [12], 25.7 µM. For the same molecule, the values for the TGI in assay [13], in assay [14] and in assay [15] were over 100 µM, 18.4 µM and 41 µM, respectively.
On to `Cc1cccc2c(N)c3cccc(C(=O)NCC[N+](C)(C)Cc4ccc([N+](=O)[O-])n4C)c3nc12`, for which the TGI was 25.4 µM in assay [1]; 35.8 µM in assay [2]; over 72.6 µM in [3]; over 81.2 µM in assay [4]; over 82.2 µM in assay [5]; over 78 µM in assay [6]. Moreover, the TGI was over 78 µM in assay [7]; over 64.9 µM in assay [8]; 59 µM in assay [9]; 64.1 µM in assay [10]; over 100 µM in [11]; over 89.3 µM in assay [12]. For the same molecule, the TGI in [13] is 98.9 µM; in assay [14], over 79.6 µM; in assay [15], 41 µM.
`CC(=O)O[C@@H]1[C@H](OC2CCCCC2(c2ccccc2)c2ccccc2)O[N+]([O-])=CC12CCCCC2` (stereo partly specified): the TGI in assay [1] was over 100 µM; in assay [2], 35.2 µM; in assay [3] it was 30 µM; in [4], 36.7 µM; in assay [5] it was 31.6 µM; in assay [6] it was 26.2 µM. For the same molecule, the TGI in [7] was 30.7 µM; in assay [8], 46.2 µM; in assay [9], 28.2 µM; in assay [10] it was 59.2 µM; in assay [12], 29.2 µM; in assay [13], 30.5 µM. For the same molecule, the figures for the TGI in [14] and in assay [15] were 32.6 µM and 43.3 µM, respectively.
As to `Oc1cc(O)c2c(c1)O[C@H](c1ccc(O)c(O)c1)[C@@H](O)C2`, the TGI in assay [1], in [2], in assay [3], in assay [4], in assay [5] and in [7] was over 100 µM each time. Moreover, the TGI in [8], in assay [9], in assay [10], in [11], in assay [12] and in assay [13] was over 100 µM throughout. The TGI in [15] was over 100 µM.
For `COc1ccc(/C=C2/N=C(N/N=C\C(O)C(O)C(O)CO)NC2=O)cc1` (stereo unspecified), the TGI in [1], in assay [2], in assay [3], in assay [4], in [5] and in [6] was over 100 µM throughout. Also, the TGI in assay [7], in [8], in assay [9], in assay [10], in assay [11] and in assay [12] was over 100 µM in each case. In addition, the TGI in assay [13] and in assay [15] was over 100 µM each time. Besides, the GI50 in assay [2] was > 100 µM and 34.2 µM; in [9], > 100 µM and 41.6 µM; in [11], > 100 µM and 48.4 µM.
Consider `COc1ccc2c(c1)CC[C@@H]1[C@@H]2CC[C@]2(C)/C(=N/OCCN3CCCC3)CC[C@@H]12`, for which the TGI amounted to 4.85 µM in assay [1]; 11.5 µM in assay [2]; 8.92 µM in assay [3]; 3.98 µM in assay [4]; 3.68 µM in assay [5]; 2.65 µM in assay [7]. Also, the TGI in assay [8] is 3.19 µM; in [9], 3.41 µM; in assay [10], 12.4 µM; in assay [11] it was 28.1 µM; in assay [12], 4.63 µM; in assay [13], 28.7 µM. In addition, the figures for the TGI in assay [14] and in assay [15] were 3.53 µM and 7.29 µM, respectively.
Regarding `O=C(O)c1cc2ccccc2c(Cc2c(O)c(C(=O)O)cc3ccccc23)c1O`, the TGI in assay [1], in assay [2], in assay [3], in [4], in [5] and in assay [7] was over 100 µM throughout. For the same molecule, the TGI in assay [8], in [9], in assay [10], in [11], in assay [12] and in assay [13] was over 100 µM throughout. Also, the TGI in assay [14] and in assay [15] was over 100 µM in each case.
`CCOC(=O)Oc1cc2ccsc2c2c1c1ccccc1n2C(=O)OCC`: the TGI is over 100 µM in [1]; over 100 µM in assay [2]; over 100 µM in assay [3]; over 100 µM in assay [4]; over 100 µM in assay [5]; 84.9 µM in assay [6]. Besides, the TGI in [7], in [8], in assay [9], in [10], in assay [12] and in [13] was over 100 µM each time. Further, the TGI in [14] and in assay [15] was over 100 µM throughout.
Regarding `C/C=C/CC(C(=O)OCC)(N(C)C(=O)OC(C)(C)C)S(=O)(=O)c1ccc(C)cc1` (stereo unspecified), the TGI in assay [1] was over 100 µM; in [2], over 100 µM; in assay [3] it was over 100 µM; in assay [4] it was 48 µM; in assay [5], over 100 µM; in assay [7], over 100 µM. Moreover, the TGI in [8], in assay [9], in assay [10], in assay [11], in [12] and in assay [13] was over 100 µM each time. The TGI in assay [14] and in assay [15] was over 100 µM throughout.
In the case of `COc1cc(C2CC(C)(N3CCOCC3)Oc3cc4c(cc32)OCO4)cc(OC)c1OC` (stereo unspecified), the TGI in [1] was over 100 µM; in assay [2], over 100 µM; in [3], over 100 µM; in [4], 0.439 µM; in assay [5], over 100 µM; in assay [6], over 80.5 µM. For the same molecule, the TGI in assay [7] was over 100 µM; in [8] it was over 100 µM; in assay [9], 1.54 µM; in assay [10] it was over 100 µM; in assay [11], over 100 µM; in assay [13], over 100 µM. Moreover, the TGI in [14] was over 100 µM; in assay [15], over 56.2 µM.
In the case of `CCO/C(O)=C(/C(=N)N1CCOCC1)C(=O)Nc1cccc(C(F)(F)F)c1`, the TGI in [1], in assay [2], in assay [3], in [4], in assay [5] and in [6] was over 100 µM each time. For the same molecule, the TGI in assay [7], in [8], in [10], in assay [11], in assay [12] and in [13] was over 100 µM in each case. Also, the TGI in assay [14] and in [15] was over 100 µM each time.
In the case of `CCOC(=O)NN(C(=O)OCC)c1ccc(N=Nc2ccc(OC)cc2)n1C`, the TGI in assay [1] was over 100 µM; in assay [2], 60.4 µM; in assay [3], 65.5 µM; in [4], 40.7 µM; in assay [6], over 100 µM; in assay [7], 39.1 µM. For the same molecule, the TGI is 41.5 µM in assay [8]; 32.6 µM in assay [9]; over 100 µM in assay [10]; over 100 µM in assay [12]; 94.6 µM in assay [13]; over 100 µM in assay [14]. This molecule also returned a TGI in assay [15] of over 100 µM.
